As a reminder, the TGI is the concentration at which net growth stops. A low value points to greater sensitivity of the cells. Broadly, the GI50 is the concentration giving 50% growth inhibition.

The structures appear in SMILES notation. “And” between values parts separate entries of the source, which are not always exact repeats. Equal entries are not always repeated.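 Step 1: Grow cells in 96-well plates. Step 2: Expose to compound for 48 hours at 5 concentrations. Step 3: Interpolate endpoints linearly; if unreached, use highest concentration. GI50 = concentration required for 50% inhibition of growth. Definition used: TGI = concentration required for complete inhibition of growth.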

Among the data in PubChem BioAssay (NCI) are TGI and GI50 values, retold here.

Assay in all cases: DTP human tumour cell line panel, 48 h
Test [1] concerns A498 renal.
In test [2] the test system is HCT-15 colon.
The subject of test [3] is HOP-62 NSCLC.
Test [4] concerns NCI/ADR-RES ovarian.
Test [5] has as its system OVCAR-4 ovarian.
The test system of test [6] is PC-3 prostate.
Test [7] relates to SK-MEL-28 melanoma.
Test [8] relates to SK-OV-3 ovarian.
Test [9] deals with T-47D breast.
Test [10] has as its system U251 CNS.

Consider `Cc1nc2c(-c3cnc(N)nc3)nc(N3CCOCC3)nc2n1C(C)C`, for which the TGI in test [1] is 0.156 µM and 0.0587 µM; in [2], more than 100 µM; in test [3], 3.5 µM and 0.772 µM; in [4] it was 4.81 µM; in test [5], 1.99 µM and 0.786 µM; in [6], more than 100 µM. The TGI in test [7] is 0.524 µM and 3.51 µM; in test [8], 0.57 µM and 0.226 µM; in test [9] it was 0.251 µM and 0.102 µM; in test [10] it was > 10 µM and 37.7 µM.

For the compound `N#CC(=C1C=CC(=NO)C=C1)c1ccccc1`, the GI50 in test [1] is 5.33 µM; in [2], 2.22 µM; in test [3], 6.31 µM; in [4], 1.49 µM; in test [5], 3.02 µM; in test [6] it was 0.671 µM. For the same compound, the GI50 in [7] is 8.71 µM; in test [8], 5.75 µM; in [9], 0.47 µM; in test [10], 1.45 µM. The TGI in [1] turned out to be 22.8 µM; in test [2], 12.3 µM; in test [3], 25.2 µM; in test [4], 11.8 µM; in test [5], 15.4 µM; in test [6], 17 µM. Further, the TGI in test [7] is 27.5 µM; in test [8], more than 65 µM; in test [9], 2.99 µM; in test [10], 8.72 µM.

Take `CCN(CC)c1ccc2c(c1)OC(N)=C(C#N)C2c1cc(OC)c2c(c1)OCO2` (stereo not given): the GI50 in [1] is 0.0201 µM; in test [2] it was 0.0349 µM; in [3] it was 0.0602 µM; in test [4], less than 0.0142 µM; in test [5], 0.0754 µM; in test [6], 0.0309 µM. The GI50 was 0.0345 µM in test [7], 0.035 µM in test [8], 3.32 µM in test [9] and 0.0408 µM in [10]. Also, the TGI is 0.0809 µM in [1]; 3.93 µM in test [2]; 20.3 µM in test [3]; 0.0679 µM in test [4]; more than 48.6 µM in test [5]; more than 100 µM in [6]. Further, the TGI came out at 22.7 µM in test [7], 12.7 µM in test [8], 22 µM in [9] and 2.38 µM in test [10].

`Cc1cc(I)cc(CN(C)CCCN2CCCCCCC2)c1O`: the GI50 is 17.2 µM in test [1]; 10.9 µM in test [2]; 16.4 µM in [3]; 20.1 µM in test [4]; 19.7 µM in test [5]; 15.8 µM in test [6]. Moreover, the GI50 in test [7] is 15.3 µM; in [8], 18.7 µM; in [9], 19.6 µM; in test [10], 15 µM. Further, the TGI in test [1] worked out at 32.9 µM; in [2] it was 23.3 µM; in test [3], 32.2 µM; in test [4] it was 45.3 µM; in [5], 58.5 µM; in test [6] it was 32.7 µM. Moreover, the TGI in [7] is 31.2 µM; in test [8], 35.9 µM; in test [9], 52.8 µM; in test [10] it was 29.2 µM.

Turning to `CN(C)N=Nc1ccc(NC=O)cc1`, the TGI in test [1], in test [2], in [3], in [4], in test [5] and in test [6] was more than 100 µM each time. Moreover, the TGI in test [7], in test [8], in [9] and in test [10] was more than 100 µM throughout.

As to `CC(CCC=O)CCOCc1ccccc1` (stereo not given), the TGI in test [1], in [2], in [3], in test [4], in test [5] and in test [6] was more than 100 µM each time. Besides, the TGI in test [7], in [8], in test [9] and in [10] was more than 100 µM each time.

For the compound `O=C(Cc1ccc(/C=C/C(=O)c2ncc[nH]2)cc1)Nc1cc(F)c(F)c(F)c1`, the GI50 is 4.34 µM in test [1]; 2.39 µM in test [2]; 3.71 µM in [3]; 7.26 µM in test [4]; 4.81 µM in [5]; 3.8 µM in [6]. For the same compound, the GI50 in test [7] was 4.15 µM; in test [8], 7.01 µM; in test [9], 2.91 µM; in test [10], 0.992 µM. The concentration for total growth inhibition (TGI) was 9.98 µM in [1]; 8.25 µM in [2]; 8.12 µM in test [3]; more than 25 µM in test [4]; more than 25 µM in test [5]; 9.12 µM in test [6]. In addition, the TGI in [7] is 8.09 µM; in test [8] it was more than 25 µM; in test [9] it was 10.5 µM; in test [10], 3.8 µM.

Turning to `Clc1nc2ccccc2nc1CI`, the GI50 was 20.5 µM in test [1]; 2.41 µM in [2]; 13.4 µM in test [3]; 4.1 µM in [4]; 5.34 µM in test [5]; 8.81 µM in test [6]. The GI50 in test [7] was 9.31 µM; in [8], 14.3 µM; in test [9], 2.5 µM; in test [10], 7.38 µM. The TGI was 42.9 µM in test [1]; 6.46 µM in test [2]; 30.6 µM in [3]; 18.1 µM in test [4]; 18.3 µM in test [5]; 22.5 µM in [6]. The TGI was 23 µM in [7], 30.4 µM in test [8], 6.76 µM in [9] and 20.8 µM in [10].
